{
  "source": "patent US7364877B2",
  "about": "“Polynucleotides encoding disorazole polyketide synthase polypeptides” (Kosan Biosciences, Inc., priority 2002, dated 2008)",
  "origin": "cited, not measured here",
  "key": {"mammalian cell": {"test_system": "mammalian cell", "details": "mammalian cells"}, "[1]": {"test_system": "filamentous fungi belonging to the Ascomycetes, Basidiomycetes, Zygomycetes, Oomycetes, and Deuteromycetes families", "details": "including filamentous fungi"}},
  "data": [
    {"smiles": "C/C=C/[C@H](O)C(C)(C)[C@@H]1C\\C=C/C=C\\C=C\\[C@H](OC)Cc2nc(co2)C(=O)O[C@H](C(C)(C)[C@@H](O)/C=C/C)C/C=C\\[C@H]2O[C@H]2/C=C/C=C\\c2nc(co2)C(=O)O1", "note": "[Disorazole A, disorazole A]", "values": [
      {"measurement": "mammalian cell cytotoxic activity (MIC)", "setting": "mammalian cell", "result": "0.003 to 0.03", "unit": "ng/mL"},
      {"measurement": "activity against different fungi (MIC)", "setting": "[1]", "result": "100 to 1000", "unit": "ng/mL"},
      {"measurement": "activity against yeast", "setting": "yeast", "result": "not highly active"},
      {"measurement": "activity against bacteria", "setting": "bacteria", "result": "not highly active"}
    ]}
  ]
}
